Earlier results as cited in patent US20110280855A1, “VITAMIN C COMPOSITIONS” (priority 2006, published 2011).

Legend:
[1] = system: murine neuroblastoma as well as melanoma cell lines; conditions: in vitro; dependent on the source of tumor cells
[2] = system: Normal lung tissue of mice; conditions: normal lung tissue of mice upon treatment

O=C(O)CCCCC1CCSS1 (stereo not drawn) [alpha-lipoic acid]
increase of GSH content compared to untreated controls [1]: 30-70% | increase in glutathione [2]: about 50%
